# Source: US20230015308A1, “SUBSTITUTED THIAZOLE AROMATIC RING-BASED COMPOUND AND PREPARATION METHOD THEREFOR, HERBICIDAL COMPOSITION AND USE THEREOF” (QINGDAO KINGAGROOT CHEMICAL COMPOUND CO., LTD., priority 2019, published 2023)
# Key:
# Experiment in all cases: Weeding effect in post-emergence stage (greenhouse pot test)
# Type in all cases: in vivo
# Conditions in all cases: 15 g a.i./ha, 3 weeks after application
# [1] = test system: Abutilon theophrasti
# From the text: (§1) The activity level criteria for plant damage (i.e., growth control rate) are as follows:
# (§2) Level 5: growth control rate is above 85%;
# (§3) Level 4: growth control rate is greater than or equal to 60% and less than 85%;
# (§4) Level 3: growth control rate is greater than or equal to 40% and less than 60%;
# (§5) Level 2: growth control rate is greater than or equal to 20% and less than 40%;
# (§6) Level 1: growth control rate is greater than or equal to 5% and less than 20%;
# (§7) Level 0: growth control rate is less than 5%.
# (§8) The above growth control rates are fresh weight control rates.
# (§9) Experiment on weeding effect in post-emergence stage:
# (§10) Monocotyledonous and dicotyledonous weed seeds (Descurainia sophia, Capsella bursa-pastoris, Abutilon theophrasti, Galium aparine, Stellaria media, Lithospermum arvense, Rorippa indica, Alopecurus aequalis, Alopecurus japonicus, Beckmannia syzigachne, Sclerochloa dura, Conyza Canadensis, Phleum paniculatum, Veronica didyma Tenore, Eleusine indica, Bromus japonicus, Aegilops tauschii, Phalaris arundinacea, Amaranthus retroflexus, Chenopodium album, Commelina communis, Sonchus arvensis, Convolvulus arvensis, Cirsium setosum, Solanum nigrum, Acalypha australis, Digitaria sanguinalis, Echinochloa crusgalli, Setaria viridis, Setaria glauca, Leptochloa chinensis, Monochoria vaginalis, Sagittaria trifolia, Scirpus juncoides, Cyperus rotundus, Cyperus iria, Cyperus difformis, Fimbristylis, Portulaca oleracea, Xanthium sibiricum, Pharbitis nil) and major crop seeds (wheat, corn, rice, soybean, cotton, oilseed rape, millet, sorghum, potato, sesame, ricinus) were placed in plastic pots filled with soil, then covered with 0.5-2 cm of soil, allowed to grow in a good greenhouse environment. After 2 weeks of sowing, the test plants were treated in the 2-3 leaf stage. The tested compounds of the present invention were respectively dissolved in acetone, then added with Tween 80 and 1.5 liter/ha of emulsifiable concentrate of methyl oleate as synergist, diluted with a certain amount of water to obtain a solution with a certain concentration, and sprayed with a spray tower onto the plants. After the application, the plants were cultured for 3 weeks in the greenhouse, and then the experimental results of the weeding were counted. The doses of the used compounds were 500, 250, 125, 60, 15 g a.i./ha, and the averages were obtained by repeating for three times.
# [2] = test system: Alopecurus japonicus
# From the text: as §1, §2, §3, §4, §5, §6, §7, §8, §9, §10
# [3] = test system: Amaranthus retroflexus
# From the text: as §1, §2, §3, §4, §5, §6, §7, §8, §9, §10
# [4] = test system: Beckmannia syzigachne
# From the text: as §1, §2, §3, §4, §5, §6, §7, §8, §9, §10
# [5] = test system: Digitaria sanguinalis
# From the text: as §1, §2, §3, §4, §5, §6, §7, §8, §9, §10
# [6] = test system: Echinochloa crusgalli
# From the text: as §1, §2, §3, §4, §5, §6, §7, §8, §9, §10
# [7] = test system: Galium aparine
# From the text: as §1, §2, §3, §4, §5, §6, §7, §8, §9, §10
# [8] = test system: Setaria viridis
# From the text: as §1, §2, §3, §4, §5, §6, §7, §8, §9, §10
# [9] = test system: Veronica didyma Tenore
# From the text: as §1, §2, §3, §4, §5, §6, §7, §8, §9, §10
Compound,"Abutilon theophrasti, activity level (fresh weight growth control rate) [1]","Alopecurus japonicus, activity level (fresh weight growth control rate) [2]","Amaranthus retroflexus, activity level (fresh weight growth control rate) [3]","Beckmannia syzigachne, activity level (fresh weight growth control rate) [4]","Digitaria sanguinalis, activity level (fresh weight growth control rate) [5]","Echinochloa crusgalli, activity level (fresh weight growth control rate) [6]","Galium aparine, activity level (fresh weight growth control rate) [7]","Setaria viridis, activity level (fresh weight growth control rate) [8]","Veronica didyma Tenore, activity level (fresh weight growth control rate) [9]"
C=CCOC(=O)c1cnc(-c2cc(-n3c(=O)cc(C(F)(F)F)n(C)c3=O)c(F)cc2Cl)s1 [1-10],5 (Level 5: growth control rate is above 85%),3 (Level 3: growth control rate is greater than or equal to 40% and less than 60%),5 (Level 5: growth control rate is above 85%),3 (Level 3: growth control rate is greater than or equal to 40% and less than 60%),4 (Level 4: growth control rate is greater than or equal to 60% and less than 85%),5 (Level 5: growth control rate is above 85%),5 (Level 5: growth control rate is above 85%),5 (Level 5: growth control rate is above 85%),5 (Level 5: growth control rate is above 85%)
Cn1c(C(F)(F)F)cc(=O)n(-c2cc(-c3ncc(C(=O)OCC4CCCO4)s3)c(Cl)cc2F)c1=O (stereo not drawn) [1-33],5 (Level 5: growth control rate is above 85%),3 (Level 3: growth control rate is greater than or equal to 40% and less than 60%),5 (Level 5: growth control rate is above 85%),3 (Level 3: growth control rate is greater than or equal to 40% and less than 60%),5 (Level 5: growth control rate is above 85%),5 (Level 5: growth control rate is above 85%),5 (Level 5: growth control rate is above 85%),5 (Level 5: growth control rate is above 85%),5 (Level 5: growth control rate is above 85%)
C#CCOC(=O)c1cnc(-c2cc(-n3c(=O)cc(C(F)(F)F)n(C)c3=O)c(F)cc2Cl)s1 [1-12],5 (Level 5: growth control rate is above 85%),3 (Level 3: growth control rate is greater than or equal to 40% and less than 60%),5 (Level 5: growth control rate is above 85%),3 (Level 3: growth control rate is greater than or equal to 40% and less than 60%),5 (Level 5: growth control rate is above 85%),5 (Level 5: growth control rate is above 85%),5 (Level 5: growth control rate is above 85%),5 (Level 5: growth control rate is above 85%),5 (Level 5: growth control rate is above 85%)
CCOC(=O)c1cnc(-c2nc(-n3c(=O)cc(C(F)(F)F)n(C)c3=O)c(F)cc2Cl)s1 [1-107],5 (Level 5: growth control rate is above 85%),5 (Level 5: growth control rate is above 85%),5 (Level 5: growth control rate is above 85%),5 (Level 5: growth control rate is above 85%),5 (Level 5: growth control rate is above 85%),5 (Level 5: growth control rate is above 85%),5 (Level 5: growth control rate is above 85%),5 (Level 5: growth control rate is above 85%),5 (Level 5: growth control rate is above 85%)
